In patent publication US20130059096A1, “METHODS AND COATINGS FOR TREATING BIOFILMS” (President and Fellows of Harvard College, priority 2010, published 2013):
Read-outs that look alike come from different tables or passages of the source.

What was measured:
[1] = system: Bacillus subtilis NCIB3610; experiment: Pellicle (biofilm) formation in liquid biofilm-inducing medium; type: cell-based; details: for Biofilm-inhibition assay for B. subtilis: summary statement, concentration not given; for Inhibition of biofilm formation (FIG. 5): MSgg medium; for minimum concentration (MIC for Minimal Inhibitory Concentration) needed to prevent biofilm formation: FIG. 2B, complete inhibition of pellicle formation
Method: (§1) Colony and pellicle formation. For colony formation on solid medium, cells were first grown to exponential growth phase in LB broth and 3 μl of culture were spotted onto solid MSgg medium containing 1.5% Bacto agar. The plates were incubated at 23° C. For pellicle formation in liquid medium, cells were grown to exponential phase and 6 μl of culture were mixed with 6 ml of medium in a 12-well plate (VWR). Plates were incubated at 23° C. Images of colonies and pellicles were taken using a SPOT camera (Diagnostic Instruments, USA).
Preparing conditioned medium. Cells were grown in LB medium to exponential phase. 0.1 ml of culture was added to 100 ml of MSgg medium and grown without shaking in a 500 ml beaker at 23° C. Next, pellicles and conditioned medium was collected by centrifugation at 8,000 rpm for 15 min. The conditioned medium (supernatant fluid) was removed and filtered through a 0.22 μm filter. The filtrates were stored at 4° C. For further purification the biofilm-inhibiting activity was fractionated on a C-18 Sep Pak cartridge using stepwise elution of 0% to 100% methanol with steps of 5%.
To investigate whether mature biofilms produce a factor that triggers biofilm disassembly, the effect of concentrated and partially purified extracts of conditioned medium on pellicle formation when added to fresh medium was assayed. To this end, conditioned medium from an eight-day-old culture was applied to a C18 Sep Pak column. Concentrated eluate from the column was then added to a freshly inoculated culture. […] Further purification of the factor was achieved by eluting the cartridge in step-wise fashion with increasing concentrations of methanol.
Next, the minimum concentration (MIC for Minimal Inhibitory Concentration) needed to prevent biofilm formation was determined.

[2] = system: S. aureus (strain SCO1); experiment: Biofilm formation on polystyrene, crystal violet staining; type: cell-based, Staphylococcus aureus; details: Staphylococcus aureus, read-out: % Inhibition relative to control (0%, <50%, 50-90%, >90%)
Method: Crystal violet staining Crystal violet staining was done as described previously (O'Toole et al., Mol. […] Wells were stained with 500 μl of 1.0% Crystal-violet dye, rinsed twice with 2 ml double-distilled water and thoroughly dried.
The effect of D-amino acids on biofilm formation by other bacteria was examined. The pathogenic bacterium Staphylococcus aureus forms biofilms on plastic surfaces (Otto, Curr. Top. Microbiol. Immunol. 322:207 (2008)), which can be detected by washing away unbound cells and staining the bound cells with crystal violet. […] Additionally added to the wells were no amino acids (untreated), D-tyrosine (50 μM) or the D-amino acid mixture ([…] each). Cells bound to the polystyrene were visualized by washing away unbound cells and then staining with crystal violet.
(§2) For experiments reported in Table 1, the organism/strain was S.a. Harvard SCO1, the culture medium was TSB and the cell inoculation was at 2×10^9 cfu. For experiments reported in Table 2, the organism/strain was […], the culture medium was M63 and the cell inoculation was at 1.5×10^9 cfu. Biofilm was visualized using the crystal violet method. The data is shown below in Tables 1 and 2:
For experiments reported in Tables 3 and 4, the organism/strain was S.a. Harvard SCO1, the culture medium was TSB and the cell inoculation was at 2×10^9 cfu. Biofilm was visualized using the crystal violet method.

[3] = system: P.a. Harvard PA14; experiment: Biofilm (colony architecture) formation on defined M63 medium; type: cell-based, Pseudomonas aeruginosa; details: 500 μM
Excerpt: Similarly to Bacillus subtilis, Pseudomonas aeruginosa forms a complex architecture on defined medium. These complex structures require the proper formation and assembly of the extra-cellular matrix. […] For these experiments, the organism/strain was P.a. Harvard PA14, the culture medium was M63 and the cell inoculation was at 1.5×10^9 cfu.

[4] = system: Pseudomonas aeruginosa PA14; experiment: Biofilm formation on polystyrene, crystal violet staining; type: cell-based; details: Pseudomonas aeruginosa, read-out: % Inhibition relative to control (0%, <50%, 50-90%, >90%)
Method: Crystal violet staining Crystal violet staining was done as described previously (O'Toole et al., Mol. Microbiol. 30:295 (1998)) except that the cells were grown in 6-well plates. Wells were stained with 500 μl of 1.0% Crystal-violet dye, rinsed twice with 2 ml double-distilled water and thoroughly dried.
P. aeruginosa strain […] was grown in 12-well polystyrene plates for 48 hours at 30° C. in M63 medium containing glycerol (0.2%) and Casamino acids (20 μg/ml). Additionally added to the wells were no amino acids (untreated), D-tyrosine or the D-amino acid equimolar mixture. Cells bound to the polystyrene were visualized by washing away unbound cells and then staining with crystal violet. Wells were stained with 500 μl of 1.0% Crystal-violet dye, rinsed twice with 2 ml double-distilled water and thoroughly dried.
as §2, with “method.” for “method. The data is shown below in Tables 1 and 2:”

[5] = system: Bacillus subtilis NCIB3610; experiment: Colony biofilm formation on solid MSgg medium; type: cell-based; details: 8.5 mM, 4 days
Method: as §1

[6] = system: Bacillus subtilis; experiment: Cell growth in MSgg medium with shaking; type: cell-based; details: 8.5 mM
[7] = system: matrix operons eps and yqxM; experiment: Expression of PyqxM-lacZ and PepsA-lacZ (β-galactosidase activity); type: cell-based, Bacillus subtilis; details: 8.5 mM, strains FC122 and FC5, MSgg, shaking
Method: Assays of β-galactosidase activity. Cells were cultured in MSgg medium at 37° C. in a water bath with shaking 1 ml of culture was collected at each time point. β-galactosidase activity was determined as described previously (Chai et al., Mol. Microbiol. 67:254 (2008)).

[8] = system: Pseudomonas aeruginosa; experiment: Attached single cells in well plate, Syto-9 staining; type: cell-based; details: Pseudomonas aeruginosa, 12 h, read-out: % Inhibition relative to control (0%, <50%, 50-90%, >90%)
Method: An alternative method to observe biofilm formation on a 6 well plate with or without D-amino acids and using Syto-9 staining was as follows: Pseudomonas aeruginosa biofilms were washed twice with PBS and then fixed for at least an hour in 5% Glutaraldehyde in PBS. The fixed biofilms were then rinsed once again with PBS and soaked in 0.1% v/v Triton X-100 in PBS (PBST) for 15 minutes. The solution was exchanged with 0.1 nM […] (Invitrogen) in cold PBST and gently rocked in the dark for at least 15 minutes. Fluorescence images of the biofilms were captured with a Leica DMRX compound microscope using a Xe lamp and a K3 Leica filtercube. […] The amount of attached single cells was quantified using image J. The decrease in the amount of cells attached to the epoxy surfaces soaked with D-aa compared with the L-aa control was substantially more.

[9] = Table 3, 10 μM, 24 h/37° C., polystyrene, TSB
[10] = Table 3, 100 μM, 24 h/37° C., polystyrene, TSB
[11] = Table 3, 500 μM, 24 h/37° C., polystyrene, TSB
[12] = Table 1, 100 nM, 24 h/37° C., polystyrene, TSB
[13] = Table 1, 10 μM, 24 h/37° C., polystyrene, TSB
[14] = Table 1, 100 μM, 24 h/37° C., polystyrene, TSB
[15] = Table 1, 500 μM, 24 h/37° C., polystyrene, TSB
[16] = PA14, Table 2, 100 nM, 48 h/30° C., polystyrene, M63

## N[C@H](Cc1ccccc1)C(=O)O [D-phenylalanine]
[1]
  Biofilm-inhibition assay for B. subtilis: not effective
[2]; [9]
  inhibition at 10 µM: < 50%
[2]; [10]
  inhibition at 100 µM: < 50%
[2]; [11]
  inhibition at 500 µM: > 90%

## N[C@@H](Cc1c[nH]c2ccccc12)C(=O)O [L-tryptophan, reference compound]
[1]; 5 mM, 3 days
  Inhibition of biofilm formation (FIG. 5): Only the D-amino acids were active
[3]
  Biofilm formation on defined medium (FIG. 20): did not

## CSCC[C@H](N)C(=O)O [L-methionine, reference compound]
[1]; 5 mM, 3 days
  Inhibition of biofilm formation (FIG. 5): Only the D-amino acids were active

## CSCC[C@@H](N)C(=O)O [D-methionine]
[1]; 2 mM, 3 days
  Inhibition of biofilm formation (FIG. 5): active in inhibiting biofilm formation
[1]
  minimum concentration (MIC for Minimal Inhibitory Concentration) needed to prevent biofilm formation: around 1 mM
  Biofilm-inhibition assay for B. subtilis: significant inhibition of biofilm growth
[2]; [12]
  inhibition at 0.1 µM: 0%
[2]; [13]
  inhibition at 10 µM: 0%
[2]; [14]
  inhibition at 100 µM: 0%
[2]; [15]
  inhibition at 500 µM: 0%
[4]; [16]
  inhibition at 0.1 µM: 0%

## CC(C)C[C@@H](N)C(=O)O [D-leucine]
[1]; 8.5 mM, freshly inoculated culture, biofilm-inducing medium, 3 days
  Effect on pellicle formation (FIG. 2A): significant inhibition of biofilm growth
[1]
  minimum concentration (MIC for Minimal Inhibitory Concentration) needed to prevent biofilm formation: around 1 mM
  Biofilm-inhibition assay for B. subtilis: significant inhibition of biofilm growth
[5]
  Biofilm formation on solid MSgg medium (FIG. 6): inhibited biofilm formation
[6]
  Cell growth (FIG. 8): substantially the same as the untreated sample
[7]
  yqxM and eps expression (FIG. 9A, 9B): substantially the same as the untreated sample
[2]; [12]
  inhibition at 0.1 µM: 0%
[2]; [13]
  inhibition at 10 µM: 0%
[2]; [14]
  inhibition at 100 µM: 0%
[2]; [15]
  inhibition at 500 µM: 0%
[4]; [16]
  inhibition at 0.1 µM: 0%
[4]; PA14, Table 2, 10 μM, 48 h/30° C., polystyrene, M63
  inhibition at 10 µM: 0%
[4]; PA14, Table 2, 100 μM, 48 h/30° C., polystyrene, M63
  inhibition at 100 µM: 0%
[4]; PA14, Table 2, 500 μM, 48 h/30° C., polystyrene, M63
  inhibition at 500 µM: 0%

## N[C@H](Cc1c[nH]c2ccccc12)C(=O)O [D-tryptophan]
[1]; 0.5 mM, 3 days
  Inhibition of biofilm formation (FIG. 5): active in inhibiting biofilm formation
[1]
  minimum concentration (MIC for Minimal Inhibitory Concentration) needed to prevent biofilm formation: around 1 mM
  Biofilm-inhibition assay for B. subtilis: significant inhibition of biofilm growth
[2]; 24 h
  inhibition at 0.1 µM: 0%
  inhibition at 10 µM: 0%
  inhibition at 100 µM: < 50%
  inhibition at 500 µM: < 50%
[4]; PA14, 48 h
  inhibition at 0.1 µM: 0%
  inhibition at 10 µM: < 50%
  inhibition at 100 µM: 50 to 90%
  inhibition at 500 µM: 50 to 90%
[3]
  Biofilm formation on defined medium (FIG. 20): inhibited biofilm formation

## O=C(O)[C@H]1CCCN1 [D-proline]
[2]; [9]
  inhibition at 10 µM: < 50%
[2]; [10]
  inhibition at 100 µM: < 50%
[2]; [11]
  inhibition at 500 µM: > 90%
[2]; Table 3, 1 mM, 24 h/37° C., polystyrene, TSB
  inhibition at 1000 µM: > 90%

## N[C@@H](Cc1ccc(O)cc1)C(=O)O [L-tyrosine, reference compound]
[3]
  Biofilm formation on defined medium (FIG. 20): did not
[8]
  inhibition at 500 µM: 0%

## C[C@@H](N)C(=O)O [D-alanine]
[1]
  Biofilm-inhibition assay for B. subtilis: not effective
